Usually pIC50 stands for the negative decadic logarithm of the IC50, by convention in mol/L.

Structures are written as SMILES. pIC50: −log10 of the molar value.

Our source for the IC50 values is US11814364B2, “Pyridine N-oxide derivatives useful as factor XIa inhibitors” (Janssen Pharmaceutica NV, priority 2021, dated 2023).

Chain of human plasma kallikrein (P03952 391-638 limits assumed): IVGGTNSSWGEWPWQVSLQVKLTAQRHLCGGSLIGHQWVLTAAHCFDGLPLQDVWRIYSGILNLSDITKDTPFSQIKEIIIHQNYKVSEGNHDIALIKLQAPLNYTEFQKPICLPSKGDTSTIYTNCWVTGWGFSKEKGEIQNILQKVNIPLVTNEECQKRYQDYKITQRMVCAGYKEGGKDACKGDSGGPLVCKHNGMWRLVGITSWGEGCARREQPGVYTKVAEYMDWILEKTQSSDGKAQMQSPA
Chain of human plasma kallikrein (P03952 20-390 partner limits assumed): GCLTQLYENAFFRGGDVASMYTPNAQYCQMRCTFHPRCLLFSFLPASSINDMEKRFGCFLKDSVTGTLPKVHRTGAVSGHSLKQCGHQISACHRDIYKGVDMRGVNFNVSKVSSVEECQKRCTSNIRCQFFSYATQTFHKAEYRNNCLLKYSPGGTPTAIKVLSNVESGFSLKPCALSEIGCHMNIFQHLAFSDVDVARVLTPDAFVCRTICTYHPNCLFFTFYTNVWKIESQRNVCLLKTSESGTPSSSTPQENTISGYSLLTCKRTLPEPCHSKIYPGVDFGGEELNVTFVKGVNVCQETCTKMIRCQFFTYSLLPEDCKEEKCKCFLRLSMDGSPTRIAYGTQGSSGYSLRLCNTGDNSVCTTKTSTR

The assay has as its target human plasma kallikrein (Homo sapiens, UniProt P03952). Kind of assay: Kallikrein inhibition FLINT assay with quenched AMC peptide substrate Z-Gly-Pro-Arg-AMC (end point EP or kinetic KIN reads). Format: biochemical. To be noted: kinetic reads at 5 min intervals over 30 min; read-out: Kallikrein (KIN) IC50. Put shortly:
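Enzyme and compound were preincubated 30 min before adding 50 μM AMC substrate in pH 7.5 Tris/NaCl/CaCl2/BSA/CHAPS buffer. AMC release was read at 30 min endpoint or every 5 min.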
Regarding `COc1cc(C(Cc2ccccc2)n2cc(-c3ccc(C(=O)O)cc3)cn2)[n+]([O-])cc1-c1c(OCC(F)(F)F)ccc(Cl)c1F` (stereo not shown) [Example Q6], the negative-log IC50 (pIC50) is 7.98. The same measure for `O=C(NC1CC1)c1ccc(-c2cnn(C(Cc3ccc(F)cc3)c3ccc(-c4c(-n5cnnn5)ccc(Cl)c4F)c[n+]3[O-])c2)cc1` (stereo not shown) [Example P125]: 8.48; for `CN(C)C(=O)c1ccn(CC(c2ccc(-c3c(-n4cnnn4)ccc(Cl)c3F)c[n+]2[O-])n2cc(-c3ccnc(C(F)(F)F)c3)cn2)n1` (single isomer, unassigned) [Example P451]: 7.75. For `[O-][n+]1cc(-c2c(-n3cc(Cl)nn3)ccc(Cl)c2F)ccc1[C@@H](CCOC(F)F)n1cc(-c2nncn2C(F)F)cn1` [Example P692], the pIC50 was 6.48. For `COc1cc(C(CC2CC2)n2cc(-c3ccnn3C)cn2)[n+]([O-])cc1-c1c(-n2cnnn2)ccc(Cl)c1F` (single isomer, unassigned) [Example P491], the pIC50 is 8.68. Then `[2H]C([2H])(C[C@@H](c1ccc(-c2c(-n3cnnn3)ccc(Cl)c2F)c[n+]1[O-])n1cc(-c2cn(C)nc2Cl)cn1)OC(F)F` [Example P849], with 6.38; and `Cn1nnc(F)c1-c1cnn(C(CC2CC2)c2ccc(-c3c(-n4cnnn4)ccc(Cl)c3F)c[n+]2[O-])c1` (stereo not shown) [Example P743], with less than 7.00. Turning to `N#Cc1cc(-c2cnn(C(CN3CCCC3=O)c3ccc(-c4c(-n5cnnn5)ccc(Cl)c4F)c[n+]3[O-])c2)ccn1` (stereo not shown) [Example P461], the negative logarithm of the IC50 (pIC50) is 7.49. Then `[O-][n+]1cc(-c2c(-n3cnnn3)ccc(Cl)c2F)ccc1C(Cn1cc(F)c(COC(F)F)n1)n1cc(-c2ccnc(C(F)(F)F)c2)cn1` (single isomer, unassigned) [Example P571], with 6.87. For `[O-][n+]1cc(-c2c(-n3cnnn3)ccc(Cl)c2F)ccc1C(Cc1ccc(F)cc1)n1cc(-c2cnn(C(F)F)n2)cn1` (single isomer, unassigned) [Example P598], the pIC50 was 6.06.

Regarding `CN(C)C(=O)CC(c1ccc(-c2c(-n3cc(C(F)(F)F)nn3)ccc(Cl)c2F)c[n+]1[O-])n1cc(-c2ccc(C(N)=O)c(F)c2)cn1` (stereo not shown) [Example P884], the negative logarithm of the IC50 (pIC50) was 7.21. For the compound `COc1cc(C(CC2CC2)n2cc(-c3ccc(C(N)=O)c(F)c3)cn2)[n+]([O-])cc1-c1cc(Cl)ccc1C#N` (stereo not shown) [Example Q59], the pIC50 is 7.60. The same measure for `O=c1[nH]c(-c2ccc(-c3cnn(C(CCOC(F)F)c4ccc(-c5c(-n6cc(C(F)(F)F)nn6)ccc(Cl)c5F)c[n+]4[O-])c3)cc2)no1` (stereo not shown) [Example P903]: 7.94; for `NC(=O)c1ccc(-c2cnn(C(Cc3ccn(C(F)F)n3)c3ccc(-c4c(-n5cc(Cl)nn5)ccc(Cl)c4F)c[n+]3[O-])c2)cc1` (single isomer, unassigned) [Example P910]: 7.51. For `CCC(c1cc(OC)c(-c2cc(Cl)ccc2C#N)c[n+]1[O-])n1cc(-c2ncnn2C(F)F)cn1` (stereo not shown) [Example Q54], the negative-log IC50 (pIC50) is 6.12. Consider `COC(=O)Nc1ccc(-c2cnn(C(CCO)c3ccc(-c4c(-n5cnnn5)ccc(Cl)c4F)c[n+]3[O-])c2)cc1` (single isomer, unassigned) [Example P218], for which the negative-log IC50 (pIC50) was 7.06. With `CCOc1cc(C(CC2CC2)n2cc(-c3cnn(C)c(=O)c3)cn2)[n+]([O-])cc1-c1c(-n2cnnn2)ccc(Cl)c1F` (stereo not shown) [Example P137], the pIC50 was 6.82. For the compound `[O-][n+]1cc(-c2c(-n3cnnn3)ccc(Cl)c2F)ccc1[C@@H](CCOC(F)F)n1cc(-c2scnc2Cl)cn1` [Example P582], the pIC50 was 9.05. As to `Nc1cnc(-c2cnn(C(CCOC(F)F)c3ccc(-c4c(-n5cc(C(F)(F)F)nn5)ccc(Cl)c4F)c[n+]3[O-])c2)c(F)n1` (single isomer, unassigned) [Example P833], the pIC50 is 7.20.

In the case of `COC(=O)Nc1ccc(-c2cnn(C(Cc3ccn(C)n3)c3ccc(-c4c(-n5cnnn5)ccc(Cl)c4F)c[n+]3[O-])c2)cc1` (single isomer, unassigned) [Example P328], the negative-log IC50 (pIC50) is 9.40.

For `NC(=O)c1ccc(-c2cnn(C(CCOC(F)F)c3ccc(-c4c(-n5cc(C(F)(F)F)nn5)ccc(Cl)c4F)c[n+]3[O-])c2)cc1F` (stereo not shown) [Example P844], the negative-log IC50 (pIC50) was 7.50. Regarding `O=C(O)c1ccc(-c2cnn(C(c3cn(C4CCNCC4)nn3)c3ccc(-c4c(-n5cnnn5)ccc(Cl)c4F)c[n+]3[O-])c2)cc1` (stereo not shown) [Example P52], the negative logarithm of the IC50 (pIC50) was 5.11.

As for `COC(=O)Nc1ccc(-c2cnn(C(Cc3ccccc3OC)c3ccc(-c4c(-n5cnnn5)ccc(Cl)c4F)c[n+]3[O-])c2)cc1` (stereo not shown) [Example P164], the pIC50 is 7.55.

On to `Cn1cc(CC(c2ccc(-c3c(C(F)F)ccc(Cl)c3F)c[n+]2[O-])n2cc(-c3cnnn3C)cn2)cn1` (single isomer, unassigned) [Example Q42], for which the pIC50 was 7.35. With `[O-][n+]1cc(-c2c(-n3cnnn3)ccc(Cl)c2F)ccc1C(Cn1cc(-c2ccccn2)cn1)n1cc(-c2ccccn2)cn1` (single isomer, unassigned) [Example P515], the negative logarithm of the IC50 (pIC50) is 6.84. Then `[O-][n+]1cc(-c2c(-n3cnnn3)ccc(Cl)c2F)ccc1C(Cc1ccc(F)cc1)n1cc(-c2ccncc2)cn1` (single isomer, unassigned) [Example P236], with 6.80; and `[O-][n+]1ccc(-c2cnn(C(Cn3cc(F)cn3)c3ccc(-c4c(-n5cnnn5)ccc(Cl)c4F)c[n+]3[O-])c2)cc1C(F)F` (single isomer, unassigned) [Example P406], with 7.56; and `O=C(C1CC1CC(c1ccc(-c2c(-n3cnnn3)ccc(Cl)c2F)c[n+]1[O-])n1cc(-c2ccncc2)cn1)N1CCC(C2CC2)C1` (stereo not shown) [Example P254], with 6.42.

On to `O=C(O)c1ccn(CC(c2ccc(-c3c(-n4cnnn4)ccc(Cl)c3F)c[n+]2[O-])n2cc(-c3ccncc3)cn2)n1` (stereo not shown) [Example P442], for which the pIC50 is approximately 6.86. For `O=C(O)c1ccc(-c2cnn(C(Cc3ccc(-c4ccccc4)cc3)c3ccc(-c4cc(Cl)ccc4-n4cnnn4)c[n+]3[O-])c2)cc1` (stereo not shown) [Example P62], the negative logarithm of the IC50 (pIC50) is 8.11. Regarding `[O-][n+]1cc(-c2c(-n3cc(Cl)nn3)ccc(Cl)c2F)ccc1C(Cn1cc(F)cn1)n1cc(-c2ccnc(C(F)(F)F)c2)cn1` (stereo not shown) [Example P479], the pIC50 was 6.73. For `COC(=O)Nc1ccc(-c2cnn(C(Cc3cccc(OC)c3)c3ccc(-c4c(-n5cnnn5)ccc(Cl)c4F)c[n+]3[O-])c2)cc1` (single isomer, unassigned) [Example P206], the pIC50 was 6.86. `CCC(c1cc(OC)c(-c2cc(Cl)ccc2-n2cc(C(F)(F)F)nn2)c[n+]1[O-])n1cc(-c2ncnn2C(F)F)cn1` (single isomer, unassigned) [Example P923]: the pIC50 is 7.41. Consider `Cn1ncnc1-c1cnn(C(CCOC(F)F)c2ccc(-c3c(-n4cc(OC(F)F)nn4)ccc(Cl)c3F)c[n+]2[O-])c1` (stereo not shown) [Example P801], for which the negative logarithm of the IC50 (pIC50) was 7.08. With `Cn1nnc(F)c1-c1cnn([C@H](CCOC(F)F)c2ccc(-c3c(-n4cc(C(F)(F)F)nn4)ccc(Cl)c3F)c[n+]2[O-])c1` [Example P754], the negative-log IC50 (pIC50) was 7.13.

Consider `NC(=O)c1ccc(-c2cnn(C(Cc3ccn(C(F)F)n3)c3ccc(-c4c(-n5cc(C(F)(F)F)nn5)ccc(Cl)c4F)c[n+]3[O-])c2)cc1F` (stereo not shown) [Example P892], for which the pIC50 was 8.54. As to `COc1cc([C@@H](CC2CC2)n2cc(-c3ccc(C(=O)O)cc3)cn2)[n+]([O-])cc1-c1cc(Cl)ccc1C#N` [Example Q51], the negative logarithm of the IC50 (pIC50) was 7.84.
